From patent US11851712B2, “Replication stress response biomarkers for immunotherapy response” (Board of Regents, The University of Texas System, priority 2018, dated 2023)

How the values were obtained:
[1] = test system: RSRD cells (MCF-10A cyclin E); assay: Senescence assay (senescence-associated β galactosidase staining); format: cell-based, human; settings: 0.5 μM AZD6244 (MEKi) or 0.1 μM ERKi (SCH772984) for 48 hours
Protocol: Senescence assay. shCTRL, shCTRL_cycE, and RSRD cells (5×10^4) were seeded in 6 wells for 48 h prior to treatment with MEK or ERK inhibitors in presence or absence of 2 μg/mL doxycycline to induce cyclin E expression. After the addition of these inhibitors, cells were cultured for another 48 h. Next, a senescence assay was performed using the senescence β-galactosidase staining kit according to the manufacturer's protocol. The percentage of senescent cells was calculated using the ratio of SA-βgal-positive cells to total cells. Mammosphere Formation Assay RSR defect model cells (5000) were seeded in an ultra-low-attachment surface 6-well plate (Corning) in mammosphere medium (50% DMEM, 50% DMEM/F12, […] hydrocortisone, 10 μg/mL insulin, 20 ng/mL recombinant EGF, 100 ng/mL cholera toxin) for 7 days in presence or absence of 2 μg/mL doxycycline to induce cyclin E expression. Spheres with diameters larger than 50 μm were scored as mammospheres.

[2] = test system: MCF10A shATR cells; assay: Stem cell score from gene expression; format: cell-based, human; settings: 48 hours, 0.5 μM AZD6244, MCF10A shATR cells
Protocol: Microarrays. Microarray analysis was conducted as described previously (Peng et al., 2014). Specifically, total RNA was extracted from the cells 48 hours after plating in presence or absence of doxycycline using a QIAGEN RNeasy RNA isolation kit. Complementary RNA was generated using a TotalPrep RNA amplification kit and loaded onto a HumanHT-12 v4 Expression BeadChip for analysis using the manufacturer's procedure.
Expression signature score. Expression signature scores were computed based on correlation coefficient between the coefficients in the gene signature and corresponding expression level in a given sample (McGrail et al., 2017; van de Vijver et al., 2002), with higher values representing a stronger correlation.

[3] = test system: breast cancer cell lines / MCF10A shATR over-expressing cyclin E; assay: Aldehyde dehydrogenase assay (Aldefluor, flow cytometry), CSC depletion; format: cell-based, human; settings: 48 hours, AZD6244 0.5 or 1.0 μM, SCH772984 0.1 or 1.0 μM, MDA-MB-231, MDA-MB-436, MCF7-stem, M158, 4T1
Protocol: Aldehyde dehydrogenase assay. Aldehyde dehydrogenase was detected using the Aldefluor kit ([…] Technologies) per the manufacturer's instructions. In brief, 1×10^6 cells/mL were incubated with Aldefluor reagent in presence or absence of ALDH inhibitor DEAB for 45 minutes at 37° C. Cells were washed, re-suspended in ALDH buffer, and analyzed by flow cytometry. Positive cells were gated relative to the DEAB-treated negative control. In some instances, cells were treated with AZD6244, SCH772984, or 2 μg/mL doxycycline 48 hours prior to analysis.

[4] = test system: p21; assay: Western blot of p21 protein; format: cell-based, human; settings: 0.5 μM AZD6244 or 0.1 μM SCH772984 for 48 hours, doxycycline 2 μg/mL
[5] = test system: 4T1 murine mammary carcinoma; assay: 4T1 murine mammary carcinoma in syngeneic mice, combination with anti-PD1; format: in vivo; settings: 25 mg/kg AZD7762 plus 10 mg/kg anti-PD1 (clone RMP1-14), Balb\C mice
Source text: FIG. 18. […] The 4T1 murine mammary carcinoma was implanted into syngeneic (Balb\C) mice and allowed to grow to ˜[…] before randomization.

[6] = test system: MDM2 phosphorylation; assay: Western blot of MDM2 phosphorylation; format: cell-based, human; settings: 0.1 μM SCH772984 for 48 hours vs DMSO
[7] = test system: p53; assay: Western blot of p53 levels; format: cell-based, human; settings: 0.1 μM SCH772984 for 48 hours vs DMSO
[8] = biological target: ATR (Homo sapiens, UniProt Q13535); settings: read-out: kinase inhibition IC50; cited from earlier work
ATR, sequence (Q13535 whole entry): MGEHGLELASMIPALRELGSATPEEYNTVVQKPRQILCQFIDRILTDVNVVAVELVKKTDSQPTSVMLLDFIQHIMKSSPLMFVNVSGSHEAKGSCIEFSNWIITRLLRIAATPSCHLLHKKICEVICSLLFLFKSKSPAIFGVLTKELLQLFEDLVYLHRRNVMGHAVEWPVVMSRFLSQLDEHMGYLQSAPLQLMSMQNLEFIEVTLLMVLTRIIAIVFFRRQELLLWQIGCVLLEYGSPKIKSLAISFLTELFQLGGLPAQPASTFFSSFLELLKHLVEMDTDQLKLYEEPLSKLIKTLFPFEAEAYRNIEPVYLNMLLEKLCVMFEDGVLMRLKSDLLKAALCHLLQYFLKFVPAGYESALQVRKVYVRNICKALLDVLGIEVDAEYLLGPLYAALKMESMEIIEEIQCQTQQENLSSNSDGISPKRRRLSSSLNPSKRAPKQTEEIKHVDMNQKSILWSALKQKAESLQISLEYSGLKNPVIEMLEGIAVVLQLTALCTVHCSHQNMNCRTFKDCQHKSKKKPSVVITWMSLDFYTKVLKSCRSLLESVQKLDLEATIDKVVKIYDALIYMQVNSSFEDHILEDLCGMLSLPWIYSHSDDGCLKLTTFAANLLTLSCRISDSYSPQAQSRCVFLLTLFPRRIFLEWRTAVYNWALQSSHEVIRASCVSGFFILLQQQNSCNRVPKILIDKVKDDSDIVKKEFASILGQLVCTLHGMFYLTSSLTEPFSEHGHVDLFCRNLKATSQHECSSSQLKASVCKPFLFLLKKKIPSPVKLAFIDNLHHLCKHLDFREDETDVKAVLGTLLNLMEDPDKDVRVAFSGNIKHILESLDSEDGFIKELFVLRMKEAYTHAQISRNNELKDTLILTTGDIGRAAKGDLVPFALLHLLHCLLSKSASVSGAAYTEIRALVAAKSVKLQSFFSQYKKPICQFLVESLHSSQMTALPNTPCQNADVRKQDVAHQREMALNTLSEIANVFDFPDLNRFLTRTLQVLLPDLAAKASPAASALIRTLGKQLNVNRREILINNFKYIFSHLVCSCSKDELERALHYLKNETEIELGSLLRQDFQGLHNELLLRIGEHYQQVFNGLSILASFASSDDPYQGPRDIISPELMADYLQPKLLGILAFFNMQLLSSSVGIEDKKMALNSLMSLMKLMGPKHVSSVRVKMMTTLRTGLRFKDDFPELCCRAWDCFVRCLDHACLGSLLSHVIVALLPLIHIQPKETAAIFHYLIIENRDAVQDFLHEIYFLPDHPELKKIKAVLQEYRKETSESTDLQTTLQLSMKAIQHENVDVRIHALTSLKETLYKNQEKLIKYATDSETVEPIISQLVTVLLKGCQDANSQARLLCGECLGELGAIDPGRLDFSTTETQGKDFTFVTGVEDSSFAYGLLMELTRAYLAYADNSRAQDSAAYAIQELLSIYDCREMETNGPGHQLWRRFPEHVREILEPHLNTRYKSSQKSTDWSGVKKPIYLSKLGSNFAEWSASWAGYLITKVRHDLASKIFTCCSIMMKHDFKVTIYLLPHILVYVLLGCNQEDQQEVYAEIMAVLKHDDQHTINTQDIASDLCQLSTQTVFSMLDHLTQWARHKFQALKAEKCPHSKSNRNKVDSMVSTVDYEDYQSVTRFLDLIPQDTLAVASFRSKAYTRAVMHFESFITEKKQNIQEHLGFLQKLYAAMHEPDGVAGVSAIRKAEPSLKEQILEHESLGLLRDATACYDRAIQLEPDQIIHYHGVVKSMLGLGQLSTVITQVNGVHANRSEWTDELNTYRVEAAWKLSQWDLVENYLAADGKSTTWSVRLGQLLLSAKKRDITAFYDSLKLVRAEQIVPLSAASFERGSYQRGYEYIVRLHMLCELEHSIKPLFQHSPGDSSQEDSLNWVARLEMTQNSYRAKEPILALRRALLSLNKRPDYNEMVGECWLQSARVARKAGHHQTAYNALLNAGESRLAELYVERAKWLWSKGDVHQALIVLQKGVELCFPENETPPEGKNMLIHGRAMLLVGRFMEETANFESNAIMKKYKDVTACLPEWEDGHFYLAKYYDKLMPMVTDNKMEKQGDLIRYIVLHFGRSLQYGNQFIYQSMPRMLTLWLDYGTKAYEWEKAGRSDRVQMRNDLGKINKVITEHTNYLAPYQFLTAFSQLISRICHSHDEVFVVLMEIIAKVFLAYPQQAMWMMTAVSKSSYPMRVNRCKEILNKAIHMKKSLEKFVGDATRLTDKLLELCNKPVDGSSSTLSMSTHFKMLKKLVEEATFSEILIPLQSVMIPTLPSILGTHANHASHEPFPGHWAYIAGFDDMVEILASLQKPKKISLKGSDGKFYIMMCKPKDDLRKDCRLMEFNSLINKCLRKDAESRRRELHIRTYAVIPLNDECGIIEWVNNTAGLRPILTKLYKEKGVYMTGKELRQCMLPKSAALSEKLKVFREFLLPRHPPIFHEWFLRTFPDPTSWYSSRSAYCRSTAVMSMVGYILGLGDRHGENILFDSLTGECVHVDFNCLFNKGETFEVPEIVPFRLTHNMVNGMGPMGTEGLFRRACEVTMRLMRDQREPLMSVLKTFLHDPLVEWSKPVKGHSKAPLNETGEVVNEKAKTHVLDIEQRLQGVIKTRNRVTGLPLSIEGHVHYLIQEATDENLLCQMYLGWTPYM
ATR, sequence (Q8WXE1 whole entry partner): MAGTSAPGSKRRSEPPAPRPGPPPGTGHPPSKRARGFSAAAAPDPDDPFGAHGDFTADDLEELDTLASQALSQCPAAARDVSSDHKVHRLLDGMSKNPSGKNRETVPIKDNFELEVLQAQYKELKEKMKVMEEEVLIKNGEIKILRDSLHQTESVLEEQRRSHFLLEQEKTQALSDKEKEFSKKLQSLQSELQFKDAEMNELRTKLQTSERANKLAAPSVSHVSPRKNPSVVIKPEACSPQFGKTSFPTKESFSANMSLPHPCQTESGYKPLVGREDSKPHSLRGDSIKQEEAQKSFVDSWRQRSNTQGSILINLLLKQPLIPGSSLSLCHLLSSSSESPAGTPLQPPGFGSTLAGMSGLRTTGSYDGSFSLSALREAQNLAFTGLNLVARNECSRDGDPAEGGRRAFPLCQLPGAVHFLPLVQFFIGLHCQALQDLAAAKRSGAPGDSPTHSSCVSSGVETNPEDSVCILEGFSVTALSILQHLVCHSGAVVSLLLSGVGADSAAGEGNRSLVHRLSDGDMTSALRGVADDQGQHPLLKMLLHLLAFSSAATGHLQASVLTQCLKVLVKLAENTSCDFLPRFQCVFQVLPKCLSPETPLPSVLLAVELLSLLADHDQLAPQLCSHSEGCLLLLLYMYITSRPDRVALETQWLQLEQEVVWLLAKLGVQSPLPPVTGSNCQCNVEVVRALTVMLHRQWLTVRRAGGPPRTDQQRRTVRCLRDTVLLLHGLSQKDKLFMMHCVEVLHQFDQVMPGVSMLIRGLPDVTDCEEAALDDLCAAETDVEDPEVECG

[9] = test system: GBM patients; settings: neoadjuvant treatment, Cloughesy et al. (2019); cited from earlier work

Molecule	oncogene-induced senescence by staining for senescence-associated β galactosidase [1]	CSC depletion by aldehyde dehydrogenase (ALDH) positivity [3]	p21 protein expression [4]	other results
Cn1cnc2c(F)c(Nc3ccc(Br)cc3Cl)c(C(=O)NOCCO)cc21 [AZD6244]	restores oncogene-induced senescence	CSCs are depleted	recovers p21 protein expression	Stem cell score [2]: can reverse the stem-cell phenotype
NC(=O)Nc1cc(-c2cccc(F)c2)sc1C(=O)N[C@H]1CCCNC1 [AZD7762]	–	–	–	tumor growth, sensitization to immunotherapy [5]: sensitizes cells to immunotherapy
O=C(Nc1ccc2[nH]nc(-c3ccncc3)c2c1)[C@@H]1CCN(CC(=O)N2CCN(c3ccc(-c4ncccn4)cc3)CC2)C1 [SCH772984]	restores oncogene-induced senescence	CSCs are depleted	recovers p21 protein expression	MDM2 phosphorylation [6]: suppression of MDM2 phosphorylation; p53 levels [7]: negligible changes in p53 levels
CS(=O)(=O)c1ccc(-c2cnc(N)c(C(=O)Nc3ccccc3)n2)cc1 [VE821]	–	–	–	IC50 [8]: 0.015 µM
pembrolizumab: anti-PD-1 antibody described in WO2009/114335	–	–	–	improvement in survival [9]: 6.2 month
